In PubChem BioAssay AID179 (DTP/NCI, 2004):
Activity calls are given as the source filed them.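 How the source made its calls: active means compounds giving half or more protection of infected cells from virus-caused growth loss, again on retest; inactive means the rest.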

Test system: CEM cells HIV-1 protection, formazan growth assay
Assay: NCI AIDS Antiviral Assay
Details: for IC50: measured here: growth of uninfected CEM cells
How it was run: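 Protection of CEM cells against HIV-1 measured as cell growth via soluble formazan read-out, with five concentrations tested on both infected and uninfected cells; failure to protect may reflect toxicity.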

| SMILES | EC50 [µM] | IC50 [µM] | outcome |
| --- | --- | --- | --- |
| COc1ccc2c(c1OC)C(=O)c1cnccc1C2=O | 60.3 | 132 | – |
| COc1cc(NS(=O)(=O)c2ccc(N)cc2)nc(OC)n1 | > 200 | > 200 | – |
| C[C@]12CC[C@H](OC(=O)/C=C\c3ccc(N(CCCl)CCCl)cc3)CC1CC[C@@H]1C2CC[C@]2(C)NC(=O)CCC12 (stereo partly drawn) | – | – | inactive |
| COc1ccc2c3c([nH]c2c1[N+](=O)[O-])C(C)N(C(=O)/C=C/c1ccccc1)CC3 (stereo not drawn) | – | – | inactive |
| Nc1nc2c(-c3ccc([N+](=O)[O-])cc3)nnn2c2ccccc12 | > 4.68 | > 4.68 | – |
| Cc1ccc2nc3c(Cl)c(C)c(=O)cc-3sc2c1 | > 13.5 | > 13.5 | – |
| O=C(NCCO)c1c(O)c2ccccc2[nH]c1=O | > 200 | > 200 | – |
| O=C1C[C@@H](c2ccccc2)O[C@@H](c2ccccc2)C1 | > 200 | 112 | – |
| Nc1ccn(C2OC(COP(=O)(O)O)C(O)OC2O)c(=O)n1 (stereo not drawn) | – | – | inactive |
| COc1ccc(NC(=O)c2cc3cc(N=Nc4ccc(Br)cc4)ccc3oc2=O)cc1 | – | – | inactive |
| CC1(C)/C(=C/N=O)N(O)C(C)(C)N1O | > 200 | 120 | – |
| Cc1ccc(C)c(NC(=O)CCC(=O)CC(=O)C(C)(C)C)c1 | – | – | inactive |
| CCOC(=O)/C(C#N)=C/N(CC)/N=C/c1ccccc1 | > 200 | > 200 | – |
| CCN(CC)/C(Sc1ccccc1)=C(\C(Cl)=C(Cl)Cl)[N+](=O)[O-] | > 200 | 12.3 | – |
| O=C(O)c1nn(-c2ccccc2)c2c1CSc1ccccc1-2 | > 200 | 158 | – |
| Cc1ccc(S(=O)(=O)n2cnc(CC(NC(=O)C3CCC(=O)N3C(=O)OCc3ccccc3)C(=O)N3CCCC3C(=O)NN)c2)cc1 (stereo not drawn) | > 200 | > 200 | – |
| CCN1CCC(O)(c2ccc(Oc3ccccc3)cc2)C(C(=O)c2ccc(Oc3ccccc3)cc2)C1 (stereo not drawn) | > 200 | 13.2 | – |
| O=C1CSC2=NC3=C(COC/C3=C\c3ccc(Br)cc3)C(c3ccc(Br)cc3)N12 (stereo not drawn) | – | – | inactive |
| CC(C)N(C(C)C)P(OCCC#N)OC1CC(n2cnc3c(=O)[nH]cnc32)OC1COC(=O)NCCCCCCNC(=O)OC(C)(C)c1ccc(-c2ccccc2)cc1 (stereo not drawn) | > 8.71 | > 8.71 | – |
| O=c1[nH]nc(Nc2ccc(Cl)cc2)c2nnn(-c3ccc([N+](=O)[O-])cc3)c12 | > 200 | 67.6 | – |
| C[N+]1(C)C/C(=C/c2ccc(F)cc2)C(=O)/C(=C\c2ccc(F)cc2)C1 | > 537 | 97.7 | – |
| CC(=O)Nc1ccc(C(=O)N[C@@H]2C(=O)N3[C@@H]2SC(C)(C)[C@@H]3C(=O)O)cn1 | 56.2 | 75.9 | – |
| Cc1cn(C2CCN(CC3COC(C)(C)O3)O2)c(=O)[nH]c1=O (stereo not drawn) | > 200 | > 200 | – |

| SMILES | EC50 [µM] | IC50 [µM] | outcome |
| --- | --- | --- | --- |
| O=c1c(O)cccc2cc(O)c(O)c(O)c12 | > 427 | 23.4 | – |
| COc1cc(CC(=O)c2ccc3c(c2)OCO3)cc(OC)c1OC | > 204 | > 204 | – |
| CCN(CC)c1ccc2cc(-c3csc(C)n3)c(=O)oc2c1 | > 200 | 10.2 | – |
| O=C1Sc2ccccc2C(=O)N2CCCC12 (stereo not drawn) | > 200 | > 200 | – |
| O=C1CCCC2CCCCN12 (stereo not drawn) | – | – | inactive |
| CCCCCCCCCCCCCCCCCCOCC(O)CO (stereo not drawn) | > 3.02 | > 3.02 | – |
| Cc1nc2ccccc2c(=O)n1NC(=O)c1ccc(CS)cc1 | – | – | inactive |
| Cc1cc(C)c(/C=C(\C(=C/c2c(C)cc(C)cc2C)[N+](=O)[O-])[N+](=O)[O-])c(C)c1 | > 100 | > 100 | – |
| O=S1(=O)C(c2ccccc2)C(N2CCCCC2)C1C1CC2c3ccccc3C1c1ccccc12 (stereo not drawn) | > 200 | 8.32 | – |
| O=C(NNc1nc(-c2ccccc2)cs1)Nc1ccccc1 | > 200 | 40.7 | – |
| O=C(O)[C@@H](NS(=O)(=O)c1ccc2ccccc2c1)c1ccccc1 | – | – | inactive |
| O=C1/C(=C/c2ccc(O)cc2)NC(=S)N1CN1CCCCC1 | > 200 | 32.4 | – |
| COc1cc(/C=C(\NC(=O)c2ccccc2)c2nc3ccc([N+](=O)[O-])cc3[nH]2)cc(OC)c1OC | – | – | inactive |
| Cc1cc(S(=O)(=O)Nc2nc3ccccc3[nH]2)c(S)cc1Cl | > 200 | 55 | – |
| CN1CC2(c3ccccc3)CN(C)CC(c3ccccc3)(C1)C2=O | > 112 | > 112 | – |
| O=C1/C(=C/c2ccc(F)cc2)CCC/C1=C\c1ccc(F)cc1 | > 23.4 | > 23.4 | – |
| Cn1c2ccccc2c(=Nc2ccc(S(N)(=O)=O)cc2)c2ccccc21 | – | – | inactive |
| Cc1c(C(=O)O)cc2n(c1=O)Cc1cc3ccccc3nc1-2 | > 10 | > 10 | – |
| COc1ccc(NC(=O)CC(=O)N/N=C/c2ccc(N(CCC#N)S(C)(=O)=O)cc2)cc1 | > 148 | > 148 | – |
| CCC12CCCNC1c1c(n(C)c3ccccc13)C(C(=O)OC)C2 (stereo not drawn) | > 37.2 | 34.7 | – |
| Cn1ncnc1CCc1ccccc1 | > 32.4 | > 32.4 | – |
| CC[N+]1(C)CCC(O)(c2ccc(C)cc2)C(C(=O)c2ccc(C)cc2)C1 (stereo not drawn) | > 200 | – | – |
| CCC(CON(C)c1ccccc1)(SC)SC | > 200 | 105 | – |

| SMILES | EC50 [µM] | IC50 [µM] | outcome |
| --- | --- | --- | --- |
| CC(=O)N(C)CCc1c[nH]c2ccccc12 | > 200 | > 200 | – |
| COc1cccc(-c2c(C#N)c(N)nc3c2CCS(=O)(=O)c2ccc(C)cc2-3)c1 | > 200 | > 200 | – |
| C=C(C)C(=O)OC1C/C(CO)=C\C(O)C/C(C)=C/C2OC(=O)C(=C)C21 (stereo not drawn) | > 724 | 12.3 | – |
| O=C(Oc1ccc(OC(=O)c2ccccc2)c(C(=O)c2ccccc2)c1C(=O)c1ccccc1)c1ccccc1 | > 200 | > 200 | – |
| CC(=O)Nc1ccc(/C=N/NC(=S)NC2CN3CCC2CC3)cc1 (stereo not drawn) | > 200 | > 200 | – |
| Cc1ccc(C)n1-c1ccccc1C1C=Cn2c(=O)nnc3c(OC(C)C)c(OC(C)C)c(O)c1c32 (stereo not drawn) | > 200 | 25.7 | – |
| CC1=NN(C(=O)CC(=O)Nc2ccccc2Cl)C(=O)C1N=Nc1ccc(S(=O)(=O)c2ccc(N=NC3C(=O)N(C(=O)CC(=O)Nc4ccccc4Cl)N=C3C)cc2)cc1 (stereo not drawn) | > 100 | > 100 | – |
| O=C(NI1OC(=O)c2ccccc21)c1ccc(Cl)cc1 | > 151 | 85.1 | – |
| O=Nc1c(O)cc(O)c2ccccc12 | – | – | inactive |
| Cc1c(CCN=P(c2ccccc2)(c2ccccc2)c2ccccc2)c(=O)n2c([nH]c3ccccc32)c1C#N | > 200 | 31.6 | – |
| CCCCN1[C@@H](C)C=C[C@@H](C)S1=O (stereo partly drawn) | – | – | inactive |
| O=C(N/N=C/C=C/c1ccccc1)c1ccccc1Nc1ccccc1C(=O)N/N=C/C=C/c1ccccc1 | > 34.7 | 4.9 | – |
| CCCCC(Sc1cc(Cl)c(C)cc1S(=O)(=O)Nc1n[nH]c(N)n1)C(=O)OC (stereo not drawn) | > 200 | > 100 | – |
| BrC1(c2ccccc2)C[n+]2c(-c3ccccc3)cc(-c3ccccc3)cc2-c2ccccc21 (stereo not drawn) | > 200 | 0.741 | – |
| O=C(OC1=CCN(Br)C1=O)C1=C(O)C(=O)N(Br)C1 | > 200 | 32.4 | – |
| Cc1cc2cccc(Cl)c2nc1C(=O)c1ccccc1 | > 6.61 | > 6.61 | – |
| CN(C)C=Nc1c2ccccc2nc2ccccc12 | > 200 | 2.45 | – |
| Nc1ccc(C(=O)NN2C(=O)C(Cl)C2c2ccccc2)cc1 (stereo not drawn) | > 200 | 47.9 | – |
| c1ccc2c(c1)Sc1nccc3ccnc-2c13 | > 200 | 13.8 | – |
| Cc1nc2ccccc2c(=O)n1NC(=S)Nc1ccccc1 | > 115 | 107 | – |
| O=S1(=O)C2CCCCC2(N2CCOCC2)C1c1ccccc1 (stereo not drawn) | > 407 | 45.7 | – |
| CC(=O)O[C@@H]1C(=O)O[C@@H]2CO[C@H](c3ccccc3)O[C@H]12 | > 200 | > 200 | – |
| Cc1cc(C)c2ccc(N3CCNCC3)nc2n1 | > 174 | 70.8 | – |

| SMILES | EC50 [µM] | IC50 [µM] | outcome |
| --- | --- | --- | --- |
| Cc1cc2c(cn1)C(=O)OCC2 | – | – | inactive |
| CC(C)NC(=O)OCCS(=O)c1c(Cl)c(Cl)nn1C (stereo not drawn) | > 200 | 33.1 | – |
| Nc1ccn(C2CC(O)C(COP(O)(=S)OC3CC(n4ccc(N)nc4=O)OC3CO)O2)c(=O)n1 (stereo not drawn) | > 200 | > 200 | – |
| CC(Oc1ccc(OCC2CCCCC2)cc1)C(=O)N(CCO)CCO (stereo not drawn) | > 692 | 44.7 | – |
| C/C(CC(=O)Nc1ccc(C)c(C)c1)=N\N(c1ccccc1)c1ccccc1 | > 97.7 | > 97.7 | – |
| O=C1Cc2c([nH]c3c(Cl)cccc23)-c2ccccc2N1 | > 200 | 11.5 | – |
| CC(C)c1nc2cc(C(F)(F)F)ccc2[nH]c1=O | > 200 | 120 | – |
| CN(C)c1ccc(N=C2N=C(Nc3ccccc3)C(=Nc3ccccc3)S2)cc1 | > 100 | 72.4 | – |
| COC(=O)c1cc2cc(OC)c(OC)cc2cc(C(=O)OC)c1=O | > 10.7 | > 10.7 | – |
| O=c1cc(O)c2c(O)cc(O)cc2o1 | > 200 | > 200 | – |
| C/C(=N/N)c1sc(-c2nc(C)c(/C(C)=N\N)s2)nc1C | > 61.7 | > 61.7 | – |
| O=C1Oc2ccccc2CC1C(=O)c1ccc([N+](=O)[O-])cc1 (stereo not drawn) | > 63.1 | 52.5 | – |
| CC(=O)OC1=C2CC[C@@H]3C(CC[C@@]4(C)C3CC[C@@H]4OC(C)=O)[C@@]2(C)CC(C#N)C1=O (stereo partly drawn) | – | – | inactive |
| C/C(O)=C(\C=N\C(N)=S)C(=O)Nc1ccccc1C | > 200 | > 200 | – |
| CC(C)(C)c1cc(S(=O)(=O)O)c2oc(-c3ccccc3)cc(=O)c2c1 | > 200 | > 200 | – |
| CC(=O)Nc1ccccc1NC1CC(C)N(c2ccccc2)N1C(C)=O (stereo not drawn) | > 200 | 32.4 | – |
| Cc1cccc(/C=C(\C#N)C(=O)c2ccccc2)c1 | > 363 | 178 | – |
| Cc1cc([N+](=O)[O-])ccc1Nc1cccc(Cl)c1C | – | – | inactive |
| O=C1CCC2(c3ccccc3)Nc3ncccc3N12 (stereo not drawn) | > 200 | > 200 | – |
| Cc1ccc(S(=O)(=O)N/N=C(/CC(=O)c2c(C)n([O-])c3ccccc3[n+]2=O)C(=O)Nc2ccc(C)c(C)c2)cc1 | > 6.46 | > 6.46 | – |
| CCOC(=O)C(F)(F)C(=O)OCC | > 200 | > 200 | – |
